We go through 15 molecules from patent US9115117B2, “Substituted piperidine compounds and their use as orexin receptor modulators” (JANSSEN PHARMACEUTICA NV, priority 2013, dated 2015).

Structures can show the parent of a compound that is named as a salt.

For experiment [1], the target named is human orexin 2 receptor (Homo sapiens (Human), UniProt O43614). The experiment can be described thus: Human orexin 2 receptor radioligand binding ([3H]-EMPA). The conditions noted are these: HEK293 stably expressing human orexin 2 receptor; [3H]-EMPA; apparent Ki; read-out: hOX2 Ki. In short, it runs like this: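 Competition binding with 2 nM final [3H]-EMPA in PBS against homogenized whole-cell suspension; DMSO ≤0.1%. Nonspecific binding defined with […] almorexant. Plates washed with PBS, dried, and bound radioactivity counted by scintillation.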

Experiment [2] addresses human orexin 1 receptor (Homo sapiens, UniProt O43613). Nature of the experiment: Human orexin 1 receptor radioligand binding. As to conditions: CHO cells stably expressing human orexin 1 receptor; apparent Ki; read-out: hOX1 Ki. Here is the method:
The in vitro affinity of the compounds of the invention for the rat/human orexin 1 and human orexin 2 receptors was determined by competitive radioligand binding using [^3H](1-(5-(2-fluoro-phenyl)-2-methyl-thiazol-4-yl)-1-((S)-2-(5-phenyl-(1,3,4)oxadiazol-2-ylmethyl)-pyrrolidin-1-yl)-methanone)(Langmead et al., 2004) and [^3H]EMPA (n-ethyl-2[96-methoxy-pyridin-3-yl)-(toluene-2-sulfonyl)-amino]-N-pyridin-3-ylmethyl acetamide), respectively (Langmead et al., 2004, British Journal of Pharmacology 141:340-346; Malherbe et al., 2004, British Journal of Pharmacology 156:1326-41).
Human Embryonic Kidney 293 cells (HEK293) stably expressing rat orexin 1 receptor (Genebank accession number NM_001525) or Chinese ovary cells (CHO) stably expressing human orexin 1 receptor (Genebank accession number NM_001526) were grown to confluency in DMEM (Hyclone, cat #SH30022), 10% FBS, 1× Pen/Strep, 1× sodium pyruvate, 10 mM HEPES, 600 µg/mL G418 and DMEM/F12 (Gibco, Cat #11039), 10% FBS, 1× Pen/Strep, 600 µg/mL G418 media, respectively on 150 cm^2 tissue culture plates, washed with 5 mM EDTA in PBS (HyClone Dulbecco's Phoshpate Buffered Saline 1× with Calcium and Magnesium, Cat #SH30264.01, hereafter referred to simply as PBS) and scraped into 50 ml tubes. After centrifugation (2K×G, 5 min at 4° C.), the supernatant was aspirated and the pellets frozen and stored at −80° C. Cells were resuspended in PBS in the presence of 1 tablet of protease inhibitor cocktail (Roche, Cat. #11836145001) per 50 mL. Each cell pellet from a 15 cm plate was resuspended in 10 mL, stored on ice, and homogenized for 45 sec prior to addition to the reactions. Competition binding experiments in 96 well polypropylene plates were performed using [^3H]-(1-(5-(2-fluoro-phenyl)-2-methyl-thiazol-4-yl)-1-((S)-2-(5-phenyl-(1,3,4)oxadiazol-2-ylmethyl)-pyrrolidin-1-yl)-methanone) (Moraveck Corporation, specific activity=35.3 Ci/mmol), diluted to a 10 nM concentration in PBS (4 nM final). […] The final concentration of DMSO in the reactions is equal to or less than 0.1%. Total and nonspecific binding was determined in the absence and presence of 10 μM almorexant. The total volume of each reaction is 200 μL (20 μL of diluted compounds, 80 μL of [3H]-(1-(5-(2-fluoro-phenyl)-2-methyl-thiazol-4-yl)-1-((S)-2-(5-phenyl-(1,3,4)oxadiazol-2-ylmethyl)-pyrrolidin-1-yl)-methanone) diluted in PBS and 100 μL of the cell suspension). Reactions were run for 60 min at room temperature and terminated by filtration through GF/C filter plates (PerkinElmer, Cat. #6005174) presoaked in 0.3% polyethylenimine using the cell harvester (PerkinElmer Filtermate). The plates were washed 3 times by aspirating 30 ml PBS through the plates. Plates were dried in 55° C. oven for 60 min, scintillation fluid was added, and the radioactivity was counted on a Topcount (Packard).

Experiment [3] concerns the target rat orexin 1 receptor (Rattus norvegicus, UniProt P56718). The experiment can be described thus: Rat orexin 1 receptor radioligand binding. The conditions noted are these: HEK293 cells stably expressing rat orexin 1 receptor; apparent Ki; read-out: rOX1 Ki. On the procedure: After centrifugation (2K×G, 5 min at 4° C.), the supernatant was aspirated and the pellets frozen and stored at −80° C. […] Each cell pellet from a 15 cm plate was resuspended in 10 mL, stored on ice, and homogenized for 45 sec prior to addition to the reactions. Competition binding experiments in 96 well polypropylene plates were performed using [^3H]-(1-(5-(2-fluoro-phenyl)-2-methyl-thiazol-4-yl)-1-((S)-2-(5-phenyl-(1,3,4)oxadiazol-2-ylmethyl)-pyrrolidin-1-yl)-methanone) (Moraveck Corporation, specific activity=35.3 Ci/mmol), diluted to a 10 nM concentration in PBS (4 nM final). […] The final concentration of DMSO in the reactions is equal to or less than 0.1%. Total and nonspecific binding was determined in the absence and presence of 10 μM almorexant. The total volume of each reaction is 200 μL (20 μL of diluted compounds, 80 μL of [3H]-(1-(5-(2-fluoro-phenyl)-2-methyl-thiazol-4-yl)-1-((S)-2-(5-phenyl-(1,3,4)oxadiazol-2-ylmethyl)-pyrrolidin-1-yl)-methanone) diluted in PBS and 100 μL of the cell suspension). […] The plates were washed 3 times by aspirating 30 ml PBS through the plates. Plates were dried in 55° C. oven for 60 min, scintillation fluid was added, and the radioactivity was counted on a Topcount (Packard).

Sequence of human orexin 2 receptor (O43614 whole entry): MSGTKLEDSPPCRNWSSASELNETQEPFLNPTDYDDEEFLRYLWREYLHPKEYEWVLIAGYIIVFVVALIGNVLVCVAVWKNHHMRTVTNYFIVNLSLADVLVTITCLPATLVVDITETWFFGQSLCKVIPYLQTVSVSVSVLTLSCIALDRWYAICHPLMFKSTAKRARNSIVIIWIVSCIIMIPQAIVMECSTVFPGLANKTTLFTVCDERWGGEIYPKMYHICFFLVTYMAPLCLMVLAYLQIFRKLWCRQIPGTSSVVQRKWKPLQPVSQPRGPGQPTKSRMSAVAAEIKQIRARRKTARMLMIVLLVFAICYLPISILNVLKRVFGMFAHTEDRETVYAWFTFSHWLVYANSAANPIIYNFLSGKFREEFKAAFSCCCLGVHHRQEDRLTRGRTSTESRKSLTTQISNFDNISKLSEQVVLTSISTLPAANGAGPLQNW

`COc1ccc(-n2nccn2)c(C(=O)N2CCC[C@@H](Nc3ccc(C(F)(F)F)cn3)[C@@H]2C)c1` (racemic) [Example 19, (±)-trans-(5-methoxy-2-(2H-1,2,3-triazol-2-yl)phenyl)(2-methyl-3-((5-(trifluoromethyl)pyridin-2-yl)amino)piperidin-1-yl)methanone]: the Ki came out at 238 nM in experiment [1], 10 nM in experiment [2] and 10 nM in experiment [3].
Take `Cc1cccc(C(=O)N2CCC[C@@H](Nc3ccc(C(F)(F)F)cn3)[C@@H]2C)c1-n1nccn1` (racemic) [Example 20, (±)-trans-(3-methyl-2-(2H-1,2,3-triazol-2-yl)phenyl)(2-methyl-3-((5-(trifluoromethyl)pyridin-2-yl)amino)piperidin-1-yl)methanone]: the Ki in experiment [1] is 150 nM; in experiment [2] it was 8 nM; in experiment [3] it was 14 nM.
As to `Cc1ccc(-c2ncco2)c(C(=O)N2CCC[C@@H](Nc3ccc(C(F)(F)F)cn3)[C@@H]2C)n1` (racemic) [Example 22, (±)-trans-(2-methyl-3-((5-(trifluoromethyl)pyridin-2-yl)amino)piperidin-1-yl)(6-methyl-3-(oxazol-2-yl)pyridin-2-yl)methanone hydrochloride], the results for the Ki in experiment [1], in experiment [2] and in experiment [3] were 422 nM, 19 nM and 33 nM, respectively.
In the case of `CCOc1ccccc1C(=O)N1CCC[C@@H](Nc2ccc(C(F)(F)F)cn2)[C@@H]1C` (racemic) [Example 29, (±)-trans-(2-ethoxyphenyl)(2-methyl-3-((5-(trifluoromethyl)pyridin-2-yl)amino)piperidin-1-yl)methanone], the figures for the Ki in experiment [1], in experiment [2] and in experiment [3] were 1400 nM, 90 nM and 97 nM, respectively.
For `C[C@H]1[C@H](Nc2ccc(C(F)(F)F)nn2)CCCN1C(=O)c1ccccc1-n1nccn1` (racemic) [Example 33, (±)-trans-(2-(2H-1,2,3-triazol-2-yl)phenyl)(2-methyl-3-((6-(trifluoromethyl)pyridazin-3-yl)amino)piperidin-1-yl)methanone hydrochloride], in that order: 4800 nM, 160 nM and 199 nM.
Take `C[C@H]1[C@H](Nc2cnc(C(F)(F)F)cn2)CCCN1C(=O)c1ccccc1-n1nccn1` (racemic) [Example 38, (±)-trans-(2-(2H-1,2,3-triazol-2-yl)phenyl)(2-methyl-3-((5-(trifluoromethyl)pyrazin-2-yl)amino)piperidin-1-yl)methanone]: the Ki in experiment [1] is 529 nM; in experiment [2], 25 nM; in experiment [3] it was 18 nM.
In the case of `CCOc1ccccc1C(=O)N1CCC[C@@H](Nc2ccc(Br)cn2)[C@@H]1C` (racemic) [Example 44, (±)-trans-(3-(5-bromopyridin-2-yl)amino)-2-methylpiperidin-1-yl)(2-ethoxyphenyl)methanone], the Ki is 1600 nM in experiment [1], 72 nM in experiment [2] and 82 nM in experiment [3].
For the molecule `C[C@H]1[C@H](Nc2nc3cc(Cl)ccc3o2)CCCN1C(=O)c1ccccc1-n1nccn1` (racemic) [Example 45, (±)-trans-(2-(2H-1,2,3-triazol-2-yl)phenyl)(3-((5-chlorobenzo[d]oxazol-2-yl)amino)-2-methylpiperidin-1-yl)methanone], the results for the Ki in experiment [1], in experiment [2] and in experiment [3] were 281 nM, 26 nM and 28 nM, respectively.
For `Cc1ccc(C(=O)N2CCC[C@@H](Nc3ccc(C(F)(F)F)cn3)[C@@H]2C)c(-n2nccn2)c1` [Example 14, (4-methyl-2-(2H-1,2,3-triazol-2-yl)phenyl)((2S,3R)-2-methyl-3-((5-(trifluoromethyl)pyridin-2-yl)amino)piperidin-1-yl)methanone], the Ki in experiment [1] worked out at 681 nM; in experiment [2], 7 nM; in experiment [3], 9 nM.
The like results for `Cc1ccc(-c2ncco2)c(C(=O)N2CCC[C@@H](Nc3ccc(C(F)(F)F)cn3)[C@@H]2C)n1` [Example 25, ((2S,3R)-2-methyl-3-((5-(trifluoromethyl)pyridin-2-yl)amino)piperidin-1-yl)(6-methyl-3-(oxazol-2-yl)pyridin-2-yl)methanone hydrochloride] were, in that order, 190 nM, 19 nM and 11 nM.
The like results for `Cc1cnc(C(=O)N2CCC[C@@H](Nc3ccc(C(F)(F)F)cn3)[C@@H]2C)c(-n2nccn2)c1` [Example 26, ((2S,3R)-2-methyl-3-((5-(trifluoromethyl)pyridin-2-yl)amino)piperidin-1-yl)(5-methyl-3-(2H-1,2,3-triazol-2-yl)pyridin-2-yl)methanone] were, in that order, 2040 nM, 14 nM and 11 nM.
For `Cc1ccc(C(=O)N2CCC[C@@H](Nc3ncc(C(F)(F)F)cn3)[C@@H]2C)c(-n2nccn2)n1` [Example 69, (6-methyl-2-(2H-1,2,3-triazol-2-yl)pyridin-3-yl)((2S,3R)-2-methyl-3-((5-(trifluoromethyl)pyrimidin-2-yl)amino)piperidin-1-yl)methanone], the Ki in experiment [1] is more than 10000 nM; in experiment [2] it was 112 nM; in experiment [3], 70 nM.
For the molecule `Cc1ccc(C(=O)N2CCC[C@@H](Nc3ncc(C(F)(F)F)cn3)[C@@H]2C)c(-n2ccnn2)n1` [Example 70, (6-methyl-2-(1H-1,2,3-triazol-1-yl)pyridin-3-yl)((2S,3R)-2-methyl-3-((5-(trifluoromethyl)pyrimidin-2-yl)amino)piperidin-1-yl)methanone], the Ki in experiment [1] came to 7500 nM; in experiment [2], 165 nM; in experiment [3] it was 170 nM.
As for `Cc1ccc(C(=O)N2CCC[C@@H](Nc3ncc(C(F)(F)F)cn3)[C@@H]2C)c(-n2nccn2)c1` [Example 71, (4-methyl-2-(2H-1,2,3-triazol-2-yl)phenyl)((2S,3R)-2-methyl-3-((5-(trifluoromethyl)pyrimidin-2-yl)amino)piperidin-1-yl)methanone], the Ki in experiment [1] is 1500 nM; in experiment [2], 12 nM; in experiment [3], 10 nM.
For `Cc1cnc(C(=O)N2CCC[C@@H](Nc3cnc(C(F)(F)F)cn3)[C@@H]2C)c(-n2nccn2)c1` [Example 72, ((2S,3R)-2-methyl-3-((5-(trifluoromethyl)pyrazin-2-yl)amino)piperidin-1-yl)(5-methyl-3-(2H-1,2,3-triazol-2-yl)pyridin-2-yl)methanone], in that order: 4020 nM, 33 nM and 24 nM.
